Laboratory results reported in PubChem BioAssay AID248 (DTP/NCI, 2004).
Values joined by “and” are separate entries in the source; they are usually repeats but may differ in a detail not shown here. Equal values may be shown once. Inconclusive results and toxic doses are left out. Rule as the data show it: active = T/C of 150% or more; inactive = T/C below 125%.

System: L1210 leukemia ip in BDF1 mice, survival T/C
Test: NCI In Vivo Anticancer Drug Screen. Data for tumor model L1210 Leukemia (intraperitoneal) in B6D2F1 (BDF1) mice
Conditions: higher = longer survival
Summary of the method: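 Read-out is survival time, reported as the treated-group measurement over the vehicle-control measurement.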

[1] = endpoint: mean survival time, dose: 100.0 mg/kg/injection, schedule: Q01DX009 (ip), vehicle: Klucel (hydroxypropylcellulose) (HPC)
[2] = endpoint: mean survival time, dose: 200.0 mg/kg/injection, schedule: Q01DX009 (ip), vehicle: Klucel (hydroxypropylcellulose) (HPC)
[3] = endpoint: mean survival time, dose: 400.0 mg/kg/injection, schedule: Q01DX009 (ip), vehicle: Klucel (hydroxypropylcellulose) (HPC)
[4] = endpoint: mean survival time, dose: 100.0 mg/kg/injection, schedule: Q04DX003 (ip), vehicle: Klucel (hydroxypropylcellulose) (HPC)
[5] = endpoint: mean survival time, dose: 200.0 mg/kg/injection, schedule: Q04DX003 (ip), vehicle: Klucel (hydroxypropylcellulose) (HPC)
[6] = endpoint: mean survival time, dose: 400.0 mg/kg/injection, schedule: Q04DX003 (ip), vehicle: Klucel (hydroxypropylcellulose) (HPC)

Measured: T/C

Cn1c(N)nc2nc[nH]c2c1=S
active: endpoint: mean survival time, dose: 2.7 mg/kg/injection, schedule: Q01DX Z (ip), vehicle: methylcellulose (MC) 159 % of control | endpoint: mean survival time, dose: 4.0 mg/kg/injection, schedule: Q01DX Z (ip), vehicle: methylcellulose (MC) 150 % of control
inactive: endpoint: mean survival time, dose: 0.25 mg/kg/injection, schedule: Q01DX Z (ip), vehicle: carboxymethylcellulose (CMC) 104 % of control | endpoint: mean survival time, dose: 0.5 mg/kg/injection, schedule: Q01DX Z (ip), vehicle: carboxymethylcellulose (CMC) 101 % of control | endpoint: mean survival time, dose: 1.0 mg/kg/injection, schedule: Q01DX Z (ip), vehicle: carboxymethylcellulose (CMC) 104 % of control | endpoint: mean survival time, dose: 2.0 mg/kg/injection, schedule: Q01DX015 (ip), vehicle: carboxymethylcellulose (CMC) 103 % of control | endpoint: mean survival time, dose: 2.0 mg/kg/injection, schedule: Q01DX Z (ip), vehicle: carboxymethylcellulose (CMC) 107 % of control | endpoint: mean survival time, dose: 2.5 mg/kg/injection, schedule: Q01DX010 (ip), vehicle: saline 95 % of control and 91 % of control | endpoint: mean survival time, dose: 4.0 mg/kg/injection, schedule: Q01DX015 (ip), vehicle: carboxymethylcellulose (CMC) 92 % of control | endpoint: mean survival time, dose: 4.0 mg/kg/injection, schedule: Q01DX Z (ip), vehicle: carboxymethylcellulose (CMC) 97 % of control and 106 % of control | endpoint: mean survival time, dose: 5.0 mg/kg/injection, schedule: Q01DX009 (ip), vehicle: saline 101 % of control and 106 % of control | endpoint: mean survival time, dose: 5.0 mg/kg/injection, schedule: Q01DX010 (ip), vehicle: saline 97 % of control and 101 % of control | endpoint: mean survival time, dose: 6.0 mg/kg/injection, schedule: Q01DX Z (ip), vehicle: methylcellulose (MC) 123 % of control | endpoint: mean survival time, dose: 8.0 mg/kg/injection, schedule: Q01DX015 (ip), vehicle: carboxymethylcellulose (CMC) 107 % of control | endpoint: mean survival time, dose: 8.0 mg/kg/injection, schedule: Q01DX Z (ip), vehicle: carboxymethylcellulose (CMC) 118 % of control | endpoint: mean survival time, dose: 10.0 mg/kg/injection, schedule: Q01DX009 (ip), vehicle: saline 101 % of control and 104 % of control | endpoint: mean survival time, dose: 10.0 mg/kg/injection, schedule: Q01DX010 (ip), vehicle: saline 100 % of control and 91 % of control | endpoint: mean survival time, dose: 16.0 mg/kg/injection, schedule: Q01DX015 (ip), vehicle: carboxymethylcellulose (CMC) 104 % of control and 116 % of control | endpoint: mean survival time, dose: 16.0 mg/kg/injection, schedule: Q01DX Z (ip), vehicle: carboxymethylcellulose (CMC) 110 % of control | endpoint: mean survival time, dose: 20.0 mg/kg/injection, schedule: Q01DX009 (ip), vehicle: saline 106 % of control and 113 % of control | endpoint: mean survival time, dose: 20.0 mg/kg/injection, schedule: Q01DX010 (ip), vehicle: saline 94 % of control and 95 % of control and 116 % of control | endpoint: mean survival time, dose: 32.0 mg/kg/injection, schedule: Q01DX015 (ip), vehicle: carboxymethylcellulose (CMC) 123 % of control | endpoint: mean survival time, dose: 40.0 mg/kg/injection, schedule: Q01DX009 (ip), vehicle: saline 119 % of control | endpoint: mean survival time, dose: 40.0 mg/kg/injection, schedule: Q01DX010 (ip), vehicle: saline 97 % of control | endpoint: mean survival time, dose: 64.0 mg/kg/injection, schedule: Q01DX010 (iv), vehicle: saline 102 % of control | endpoint: mean survival time, dose: 64.0 mg/kg/injection, schedule: Q01DX015 (ip), vehicle: carboxymethylcellulose (CMC) 123 % of control | endpoint: mean survival time, dose: 80.0 mg/kg/injection, schedule: Q01DX010 (ip), vehicle: saline 97 % of control | endpoint: mean survival time, dose: 128.0 mg/kg/injection, schedule: Q01DX010 (iv), vehicle: saline 100 % of control | endpoint: mean survival time, dose: 128.0 mg/kg/injection, schedule: Q01DX015 (ip), vehicle: carboxymethylcellulose (CMC) 115 % of control | endpoint: mean survival time, dose: 256.0 mg/kg/injection, schedule: Q01DX010 (iv), vehicle: saline 108 % of control | endpoint: median survival time, dose: 5.0 mg/kg/injection, schedule: Q01DX009 (ip), vehicle: saline 105 % of control and 106 % of control | endpoint: median survival time, dose: 10.0 mg/kg/injection, schedule: Q01DX009 (ip), vehicle: saline 110 % of control | endpoint: median survival time, dose: 20.0 mg/kg/injection, schedule: Q01DX009 (ip), vehicle: saline 110 % of control and 112 % of control | endpoint: median survival time, dose: 40.0 mg/kg/injection, schedule: Q01DX009 (ip), vehicle: saline 120 % of control

Cc1ccc(S(=O)(=O)OCCN(CCOS(=O)(=O)c2ccc(C)cc2)c2cccc(F)c2)cc1
inactive: endpoint: mean survival time, dose: 50.0 mg/kg/injection, schedule: Q01DX001 (ip), vehicle: carboxymethylcellulose (CMC) 101 % of control and 114 % of control | endpoint: mean survival time, dose: 90.0 mg/kg/injection, schedule: Q01DX001 (ip), vehicle: carboxymethylcellulose (CMC) 103 % of control and 122 % of control | endpoint: mean survival time, dose: 100.0 mg/kg/injection, schedule: Q01DX001 (ip), vehicle: carboxymethylcellulose (CMC) 103 % of control and 106 % of control | endpoint: mean survival time, dose: 135.0 mg/kg/injection, schedule: Q01DX001 (ip), vehicle: carboxymethylcellulose (CMC) 106 % of control and 110 % of control | endpoint: mean survival time, dose: 300.0 mg/kg/injection, schedule: Q01DX001 (ip), vehicle: carboxymethylcellulose (CMC) 115 % of control and 120 % of control | endpoint: mean survival time, dose: 400.0 mg/kg/injection, schedule: Q01DX001 (ip), vehicle: carboxymethylcellulose (CMC) 109 % of control and 116 % of control

COC(=O)C(=O)c1c(-c2ccc[n+](Cc3ccccc3)c2)[nH]c2ccccc12
inactive: endpoint: mean survival time, dose: 75.0 mg/kg/injection, schedule: Q01DX001 (ip), vehicle: saline 101 % of control | endpoint: mean survival time, dose: 150.0 mg/kg/injection, schedule: Q01DX001 (ip), vehicle: saline 93 % of control

CC[C@]12CN3CCc4c([nH]c5ccccc45)[C@@](C(=O)OC)(c4cc5c(cc4OC)N(C)[C@H]4[C@@](O)(C(=O)OC)[C@H](OC(C)=O)[C@]6(CC)C=CCN7CC[C@]54[C@@H]76)CC(C3)[C@H]1O2 (stereo partly drawn)
inactive: endpoint: mean survival time, dose: 0.37 mg/kg/injection, schedule: Q01DX009 (ip), vehicle: saline 108 % of control | endpoint: mean survival time, dose: 0.75 mg/kg/injection, schedule: Q01DX009 (ip), vehicle: Klucel (hydroxypropylcellulose) (HPC) 100 % of control | endpoint: mean survival time, dose: 1.5 mg/kg/injection, schedule: Q01DX002 (ip), vehicle: saline 108 % of control | endpoint: mean survival time, dose: 1.5 mg/kg/injection, schedule: Q01DX009 (ip), vehicle: Klucel (hydroxypropylcellulose) (HPC) 105 % of control | endpoint: mean survival time, dose: 1.5 mg/kg/injection, schedule: Q01DX009 (ip), vehicle: saline 97 % of control and 108 % of control and 114 % of control | endpoint: mean survival time, dose: 3.0 mg/kg/injection, schedule: Q01DX002 (ip), vehicle: saline 115 % of control | endpoint: mean survival time, dose: 3.0 mg/kg/injection, schedule: Q01DX009 (ip), vehicle: Klucel (hydroxypropylcellulose) (HPC) 110 % of control | endpoint: mean survival time, dose: 6.0 mg/kg/injection, schedule: Q01DX002 (ip), vehicle: saline 117 % of control | endpoint: mean survival time, dose: 6.0 mg/kg/injection, schedule: Q01DX009 (ip), vehicle: Klucel (hydroxypropylcellulose) (HPC) 107 % of control | endpoint: mean survival time, dose: 12.0 mg/kg/injection, schedule: Q01DX009 (ip), vehicle: Klucel (hydroxypropylcellulose) (HPC) 115 % of control | endpoint: mean survival time, dose: 12.0 mg/kg/injection, schedule: Q01DX009 (ip), vehicle: saline 95 % of control | endpoint: mean survival time, dose: 16.5 mg/kg/injection, schedule: Q04DX003 (ip), vehicle: saline with Tween-80 106 % of control | endpoint: mean survival time, dose: 37.5 mg/kg/injection, schedule: Q04DX003 (ip), vehicle: saline 94 % of control

COC(=O)C(F)C(Br)C(=O)OC (stereo not drawn)
inactive: endpoint: mean survival time, dose: 3.12 mg/kg/injection, schedule: Q01DX009 (ip), vehicle: saline with Tween-80 114 % of control | endpoint: mean survival time, dose: 6.25 mg/kg/injection, schedule: Q01DX009 (ip), vehicle: saline with Tween-80 101 % of control | endpoint: mean survival time, dose: 12.5 mg/kg/injection, schedule: Q01DX009 (ip), vehicle: saline with Tween-80 103 % of control | endpoint: mean survival time, dose: 25.0 mg/kg/injection, schedule: Q01DX009 (ip), vehicle: saline with Tween-80 97 % of control | endpoint: mean survival time, dose: 50.0 mg/kg/injection, schedule: Q01DX009 (ip), vehicle: saline with Tween-80 101 % of control

COc1ccc(OC)c(NC(=O)Oc2ccc(NC(C)=O)cc2)c1
inactive: [1] 104 % of control | [2] 102 % of control | [3] 96 % of control

S=C1SCN(C2CCCCC2)CN1C1CCCCC1
inactive: [1] 94 % of control | [4] 91 % of control | [2] 95 % of control | [5] 100 % of control | [3] 94 % of control | [6] 100 % of control

Brc1ccc2c(c1)/C(=C/c1ccccc1)c1ccccc1-2
inactive: endpoint: mean survival time, dose: 25.0 mg/kg/injection, schedule: Q04DX002 (ip), vehicle: DMSO 92 % of control | endpoint: mean survival time, dose: 50.0 mg/kg/injection, schedule: Q04DX002 (ip), vehicle: DMSO 95 % of control

O=C(CCl)Nc1ccc2c(c1)-n1cccc1C2=O
inactive: endpoint: mean survival time, dose: 25.0 mg/kg/injection, schedule: Q01DX009 (ip), vehicle: Klucel (hydroxypropylcellulose) (HPC) 89 % of control | endpoint: mean survival time, dose: 50.0 mg/kg/injection, schedule: Q01DX009 (ip), vehicle: Klucel (hydroxypropylcellulose) (HPC) 91 % of control | [1] 86 % of control | [4] 93 % of control | [5] 96 % of control | [6] 100 % of control

CC(=O)OC12CC3(C)CC(C)(C1)CC(OC(C)=O)(C3)C2
inactive: endpoint: mean survival time, dose: 100.0 mg/kg/injection, schedule: Q04DX002 (ip), vehicle: saline 113 % of control | endpoint: mean survival time, dose: 200.0 mg/kg/injection, schedule: Q04DX002 (ip), vehicle: saline 90 % of control | endpoint: mean survival time, dose: 400.0 mg/kg/injection, schedule: Q04DX002 (ip), vehicle: saline 113 % of control

CN1CCN(C(=S)Nc2ccc([N+](=O)[O-])cc2)CC1
inactive: [1] 98 % of control | [2] 105 % of control | [3] 96 % of control
